Test results reported in US20020125193A1, “Electrochemical analysis of coenzyme Q10 and reduced coenzyme Q10” (priority 2001, published 2002).
Each block holds one compound with its values, some of them ahead of it.

Tests used:
[1] = Solubility in 1-propanol relative to other alcohols; assay type: physicochemical
Excerpt: Using 1-propanol as an extracting solvent allows fast and simple sample processing. The procedure has been simplified to a single extraction and no evaporation process is needed. This allows for efficient sample handling. Extraction of CoQ10H2 and CoQ10 from a variety of biological matrices is made facile with 1-propanol, because it can be mixed with water in any proportion. […] Thus, 1-propanol is an effective extraction solvent (Table 2). The 1-propanol extract can be directly analyzed by the described HPLC-EC method. Furthermore, this procedure takes advantage of the use of CoQ9 as an internal standard. Because the levels of CoQ9 in human blood are negligible, it is desirable to spike control samples with this CoQ9 to validate the extraction process.

[2] = cited from earlier work
[3] = Stability of CoQ10H2 in refrigerated blood samples in vacutainers; assay type: physicochemical, human
Method: When blood samples in vacutainers are opened and kept refrigerated, the CoQ10H2:TQ10 ratios (n=30) in EDTA samples decreased by ˜30% over 7 h, whereas the CoQ10H2:TQ10 ratios in heparinized samples were stable over the same period with variation of less than 3% (median 0.949; range 0.927-0.970; n=30). There was as significant difference of CoQ10H2:TQ10 ratios in heparin in EDTA (P=0.028). The observed findings therefore reflect the effect of air-exposure on EDTA samples during the blood sampling procedure. The results also indicate that delays, in processing and analyzing EDTA samples would result in lowered and variable CoQ10H2:TQ10 ratios.
CoQ10H2 is not stable and is oxidized in air at room temperature. CoQ10H2 is unstable in whole blood, plasma and n-propanol extract when EDTA is used as anticoagulant. EDTA-anticoagulated blood loses approximately 15% of CoQ10H2 within 4 hours when stored in refrigeration (4° C.), whereas only <1% loss of CoQ10H2 occurs in heparin-anticoagulated blood under the same conditions (FIG. 6). When fresh blood samples in closed heparin vacutainers are kept refrigerated, no significant difference in CoQ10H2:TQ10 ratios was observed between samples stored for 0 h and 24 h (P=0.052). The median CoQ10H2:TQ10 ratio stored for 24 h was 0.955 (range 0.923-0.972; n=8) in comparison to the initial value of 0.964 (range 0.935-0.978; n=8). The CoQ10H2:TQ10 ratios decreased by ˜6% after 48 h and by ˜28% after 72 h. Storage of blood specimens in VACUTAINERS at +4° C. […] Okamoto et al reported the percentage of CoQ10H2 with respect to the TQ10 was constant in plasma for one day when kept at 2° C. and −10° C.

[4] = Stability of CoQ10H2 in 1-propanol extract; assay type: physicochemical, human
Method: (§1) Each frozen sample is thawed at room temperature, and 100 μl of this sample is placed in a 1.5-ml capped polypropylene tube containing 50 μl of internal standard solution (CoQ9, 2 μg/mL in 1-propanol). All the tubes are kept in an ice-bath. This is mixed with 850 μl of cold 1-propanol. The tubes are vortexed for 2 minutes on a mechanical vortexer and centrifuged for 10 min at 0-4° C. The resulting supernatant is separated from the precipitate and transferred to an autosampler glass vial. The sample vial is immediately placed in the autosampler tray at 0-4° C. A batch of up to 20 samples can be extracted and processed at the same time. An aliquot of 20 μl of 1-propanol extract from a vial is injected immediately onto an automated HPLC. Twenty samples can be analyzed sequentially, within 4 hours.

[5] = Stability of CoQ10H2 in frozen plasma; assay type: physicochemical, human; settings: plasma kept frozen at −75° C. or below
Method: (§2) According to the present invention, venous blood is collected into a VACUTAINER containing heparin as anticoagulant and mixed gently by inversion 5-6 times. At this point the blood-heparin tube is securely capped, and is then placed in ice and/or kept in refrigeration prior to processing. The blood-heparin tube should be processed within 4 hours. Blood samples should not be collected in tubes containing metal chelators, such as ethylenediaminetetraacetic acid (EDTA). The blood-heparin tube is subject to centrifugation at an appropriate speed such as 3000 rpm for 10 minutes at 4° C. Heparinized plasma is separated from red blood cells and placed in a capped polypropylene tube and immediately stored at −75° C. or below until analysis.
CoQ10H2 is not stable and is oxidized in air at room temperature. CoQ10H2 is unstable in whole blood, plasma and n-propanol extract when EDTA is used as anticoagulant. EDTA-anticoagulated blood loses approximately 15% of CoQ10H2 within 4 hours when stored in refrigeration (4° C.), whereas only <1% loss of CoQ10H2 occurs in heparin-anticoagulated blood under the same conditions (FIG. 6). When fresh blood samples in closed heparin vacutainers are kept refrigerated, no significant difference in CoQ10H2:TQ10 ratios was observed between samples stored for 0 h and 24 h (P=0.052). […]

[6] = CoQ10H2 and TQ10 in paired heparin versus EDTA plasma samples by HPLC-EC; assay type: physicochemical, human
Method: as §2
as §1, with “A batch of up to 20 samples can be extracted and processed at the same time. An aliquot of 20 μl of 1-propanol extract from a vial is injected immediately onto an automated HPLC.” left out, “hours. […]” for “hours.”

solubility in alcohols [1]: highest solubility in 1-propanol
SMILES: COC1=C(OC)C(=O)C(C/C=C(\C)CC/C=C(\C)CC/C=C(\C)CC/C=C(\C)CC/C=C(\C)CC/C=C(\C)CC/C=C(\C)CC/C=C(\C)CC/C=C(\C)CCC=C(C)C)=C(C)C1=O [CoQ10, ubiquinone-10, reference compound]

decrease of CoQ10H2:TQ10 ratio ([3]; EDTA blood, vacutainers opened, refrigerated, over 7 h, n=30): ~30%
loss of CoQ10H2 ([3]; EDTA-anticoagulated blood, within 4 hours, 4° C.): approximately 15%
loss of CoQ10H2 ([3]; blood in VACUTAINERS at +4° C., 24 hours): < 3%
time CoQ10H2 is stable ([3]; blood in closed heparin VACUTAINERS kept refrigerated): at least 24 hours
median CoQ10H2:TQ10 ratio ([3]; closed heparin vacutainers, initial value (0 h), n=8): 0.964
decrease of CoQ10H2:TQ10 ratio ([3]; closed heparin vacutainers, refrigerated, after 48 h): ~6%
decrease of CoQ10H2:TQ10 ratio ([3]; closed heparin vacutainers, refrigerated, after 72 h): ~28%
median CoQ10H2:TQ10 ratio ([3]; closed heparin vacutainers, refrigerated, stored for 24 h, n=8): 0.955
loss of CoQ10H2 ([3]; heparin-anticoagulated blood, within 4 hours, 4° C.): < 1%
variation of CoQ10H2:TQ10 ratio ([3]; heparinized blood, vacutainers opened, refrigerated, over 7 h): less than 3%
median CoQ10H2:TQ10 ratio ([3]; heparinized blood, vacutainers opened, refrigerated, over 7 h, n=30): 0.949
loss of CoQ10H2 ([4]; in 5 hours, 0-4° C.): 1%
CoQ10H2 oxidized ([4]; in an hour, room temperature): 3.75%
rate of CoQ10H2 oxidation ([4]; room temperature): ~2 nM/min
solubility in alcohols [1]: highest solubility in 1-propanol
time CoQ10H2 is stable [5]: at least 6 months
mean ratio of CoQ10H2:TQ10 ([6]; EDTA-plasma): 91.5(±4.4) %
mean ratio of CoQ10H2:TQ10 ([6]; heparinized plasma): 97.0(±1.4) %
SMILES: COc1c(O)c(C)c(C/C=C(\C)CC/C=C(\C)CC/C=C(\C)CC/C=C(\C)CC/C=C(\C)CC/C=C(\C)CC/C=C(\C)CC/C=C(\C)CC/C=C(\C)CCC=C(C)C)c(O)c1OC [CoQ10H2]
stability in ethanol solution ([2]; extracted from plasma, prepared in ethanol solution (Okamoto et al)): rapidly oxidized
percentage of CoQ10H2 with respect to the TQ10 ([2]; plasma, one day, 2° C. and −10° C. (Okamoto et al)): constant
rate of spontaneous oxidation to CoQ10 ([2]; room temperature): ~2 nM per min
